From patent publication US8557875B2, “Gene transfer agent composition containing polyamidoamine dendron” (Public University Corporation Osaka Prefecture University, priority 2009, dated 2013)

How the values were obtained:
NHDF-ad cells = experiment: Flow cytometry of GFP fluorescence in treated cells; assay type: cell-based, human
COS-7 [1] = experiment: Gene transfer (GFP expression, luciferase activity) versus commercial agents (Example 5); assay type: cell-based; conditions: COS-7 adherent cells; compared with Lipofectamine LTX and FuGENE HD
Experimental: (§1) pEGFP-C1 expressing a green fluorescent protein was used as a gene transfer plasmid; and adherent cells COS-7 and Hela-S3, and non-adherent cells K562, which were established cell lines, were used as target cells. Lipoplexes were individually prepared using DL-U2. Then, gene transfer was performed.
(COS7 cells: 2.0×10^4 cells/well·DMEM+10% FBS (Pe/St) 500 μl)
(§2) (i) A 20 mM Tris-HCl (pH 7.4) buffer was dispensed into three tubes at 35.5 μl (for NP ratio=6) for each of two tubes, and 23 μl (for NP ratio=8) for the remaining tube.
(§3) (ii) 1.0 μg of plasmid DNA (pCAG-GFP) was added to each of the three tubes prepared in step (i) at 2 μl (1.0 μg), and the contents were stirred.
(§4) (iii) A DL-U2 liposome solution was added to the three tubes prepared in step (ii) at 37.5 μl (N/P ratio=6) for each of two tubes, and 50 μl (N/P ratio=8) for the remaining tube.
(§5) (iv) 25 μl of an Opti-MEM (registered trademark) I Reduced-Serum Medium was further added, and the whole was thoroughly mixed and allowed to stand at room temperature for 5 minutes.
(v) 100 μl of the DL-plasmid DNA complex solution (N/P ratio=6) was added and mixed with the COS7 cells. […]
(§6) (vii) 48 hours later, luciferase activity was measured according to the protocol of the luciferase assay system (Promega, E1501) (relative values based on the activity of LTX defined as 1 were graphed).

K562 = experiment: as above; assay type: cell-based; conditions: K562 non-adherent cells; compared with Lipofectamine LTX and FuGENE HD
Experimental: as §1, §2, §3, §4, §5
50 μl of the DL-plasmid DNA complex solution (N/P ratio=8) was added and mixed with the K562 cells. […]
as §6

HeLa cells = experiment: Gene transfer evaluated by luciferase assay (Example 2); assay type: cell-based, human; conditions: lipoplex with 1 μg plasmid DNA, various N/P ratios; FIG. 7 and FIG. 8
Experimental: HeLa cells derived from human cervical cancer were seeded in a 24-well dish at 5.0×10^4 cells per well, and cultured overnight at 37° C. in 0.5 ml of a DMEM medium containing 10% FBS. Then, the cells were washed twice with PBS containing 0.36 mM CaCl2 and 0.42 mM MgCl2 (PBS (+)). Next, 0.5 ml of a DMEM medium containing 10% FBS was added, and the cells were supplemented with a lipoplex (100 μl) containing 1 μg of plasmid DNA per well and incubated at 37° C. for 4 hours. Afterward, the cells were washed three times with PBS (+) to remove the lipoplex not incorporated into the cells. Then, 1 ml of a DMEM medium containing 10% FBS was added, and the cells were cultured at 37° C. for 40 hours.
The cells treated with the lipoplex and cultured for 40 hours were washed twice with PBS (+), and further washed once with PBS (−). […] The luciferase activity and the amount of protein in the resulting cell lysate were determined by luciferase assay and a Coomassie (Bradford) Protein Assay Kit (PIERCE). […] The luminescent substrate solution (20 μl) was mixed with a luminescent substrate liquid (95 μl) including luciferin (13.5 μg) and a 5 mg/ml albumin solution (5 ml), and subjected to measurement for 20 seconds with a Lumat LB9507 luminometer (Berthold Japan Co., Ltd.) for an amount of luminescence.

COS-7 [2] = experiment: Cytotoxic evaluation on gene transfer (Example 5); assay type: cell-based; conditions: compared with Lipofectamine LTX and FuGENE HD

**Q.** Which results are given for `CCCCCCCC/C=C\CCCCCCCCN(CCCCCCCC/C=C\CCCCCCCC)CCC(=O)NCCN(CCC(=O)NCCN)CCC(=O)NCCN` (racemic) [DL-G1-U2]?
**A.** fluorescence intensity of GFP expressed in the cells compared with DL-G1 (NHDF-ad cells): about ten times higher; gene transfer activity (COS-7 [1]): excellent gene transfer activity; gene transfer activity (K562): excellent gene transfer activity; gene transfer efficiency (luciferase activity) compared with G1 (HeLa cells): two times higher; cytotoxicity (COS-7 [2]): lower cytotoxicity
